From ChEMBL document CHEMBL1135158, “Pyrrolo[2,3-d]pyrimidines containing diverse N-7 substituents as potent inhibitors of Lck” (Bioorg Med Chem Lett, 2002)
Each block holds one compound with its values, some of them ahead of it.

How the values were obtained:
Mus musculus [1] = test: Compound was evaluated for the inhibition of TCR stimulated (anti-CD3 mAb) IL-2 production in mice following oral administration; assay type: functional
Angiopoietin-1 receptor [2] = molecular target: T1, Angiopoietin-1 receptor (Homo sapiens, UniProt Q02763)
T1 sequence (Q02763 whole entry): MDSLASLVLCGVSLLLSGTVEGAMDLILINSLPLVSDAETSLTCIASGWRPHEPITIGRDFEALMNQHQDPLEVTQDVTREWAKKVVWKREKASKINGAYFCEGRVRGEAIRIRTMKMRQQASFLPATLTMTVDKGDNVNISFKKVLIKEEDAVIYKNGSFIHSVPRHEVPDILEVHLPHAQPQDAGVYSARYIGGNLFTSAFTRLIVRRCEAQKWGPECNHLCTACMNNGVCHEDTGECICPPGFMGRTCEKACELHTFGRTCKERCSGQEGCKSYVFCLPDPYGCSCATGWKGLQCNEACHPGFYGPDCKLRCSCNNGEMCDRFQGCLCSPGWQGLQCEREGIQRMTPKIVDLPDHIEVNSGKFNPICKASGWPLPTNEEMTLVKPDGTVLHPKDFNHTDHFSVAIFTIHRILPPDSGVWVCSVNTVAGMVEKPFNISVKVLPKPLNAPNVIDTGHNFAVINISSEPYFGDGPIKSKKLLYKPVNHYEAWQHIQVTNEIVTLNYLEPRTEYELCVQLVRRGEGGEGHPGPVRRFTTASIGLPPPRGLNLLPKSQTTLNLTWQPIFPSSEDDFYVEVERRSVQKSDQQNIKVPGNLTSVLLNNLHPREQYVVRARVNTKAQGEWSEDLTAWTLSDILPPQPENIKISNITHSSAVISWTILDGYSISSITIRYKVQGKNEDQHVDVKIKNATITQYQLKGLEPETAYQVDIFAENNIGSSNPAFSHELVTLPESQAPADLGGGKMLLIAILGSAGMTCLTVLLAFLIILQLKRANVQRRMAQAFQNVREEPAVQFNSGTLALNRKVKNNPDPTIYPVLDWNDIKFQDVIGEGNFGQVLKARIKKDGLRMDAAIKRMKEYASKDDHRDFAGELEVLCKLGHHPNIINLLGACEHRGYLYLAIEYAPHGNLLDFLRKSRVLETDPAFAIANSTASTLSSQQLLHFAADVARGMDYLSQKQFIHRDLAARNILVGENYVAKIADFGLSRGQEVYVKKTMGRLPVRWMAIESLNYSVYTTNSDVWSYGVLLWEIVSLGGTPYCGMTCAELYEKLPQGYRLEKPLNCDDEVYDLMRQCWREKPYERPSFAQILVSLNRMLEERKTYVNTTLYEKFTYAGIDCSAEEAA

[3] = Half life period was determined after intravenous administration at a dose 5 mg/kg to male Sprague-Dawley rats; assay type: ADME, organism-based; parameters: dose 5 mg/kg, route intravenous; settings: rat, in vivo
[4] = Maximum time constant was determined after oral administration at a dose 10 mg/kg to male Sprague-Dawley rats; assay type: ADME, organism-based; parameters: dose 10 mg/kg, route oral; settings: rat, in vivo
[5] = Clearance was determined after intravenous administration at a dose 5 mg/kg to male Sprague-Dawley rats; assay type: ADME, organism-based; parameters: dose 5 mg/kg, route intravenous; settings: rat, in vivo
[6] = Bioavailability was determined after intravenous administration at a dose 5 mg/kg to male Sprague-Dawley rats; assay type: ADME, organism-based; settings: rat, in vivo
[7] = Volume of distribution was determined after intravenous administration at a dose 5 mg/kg to male Sprague-Dawley rats; assay type: ADME, organism-based; parameters: dose 5 mg/kg, route intravenous; settings: rat, in vivo, read-out: Vz
[8] = Area under curve was determined after oral administration at a dose 10 mg/kg to male Sprague-Dawley rats; assay type: ADME, organism-based; parameters: dose 10 mg/kg, route oral; settings: rat, in vivo
Homo sapiens = species on record: Homo sapiens; test: Inhibition of IL-2 production in whole blood assay; assay type: functional
Jurkat = test: Inhibition of IL-2 production in anti-CD3 stimulated Jurkat cells; assay type: functional, cell-based; settings: Homo sapiens
Mus musculus [9] = test: Effective dose was evaluated in vivo for the inhibition of IFN-gamma production for 3 days peroral administration of the compound; assay type: functional; settings: po, 72 h
[10] = molecular target: Platelet-derived growth factor receptor (Homo sapiens, UniProt P09619+P16234); test: Inhibition of Platelet-derived growth factor receptor (Inactive at 1 mM ATP); assay type: protein-complex assay
[11] = molecular target: T2, Tyrosine-protein kinase CSK (Homo sapiens, UniProt P41240); test: Inhibition of human Tyrosine-protein kinase CSK
[12] = molecular target: Tyrosine-protein kinase Lyn (Homo sapiens, UniProt P07948); test: Inhibition of human p56 Lyn tyrosine kinase
Sequence of Tyrosine-protein kinase Lyn (P07948 whole entry): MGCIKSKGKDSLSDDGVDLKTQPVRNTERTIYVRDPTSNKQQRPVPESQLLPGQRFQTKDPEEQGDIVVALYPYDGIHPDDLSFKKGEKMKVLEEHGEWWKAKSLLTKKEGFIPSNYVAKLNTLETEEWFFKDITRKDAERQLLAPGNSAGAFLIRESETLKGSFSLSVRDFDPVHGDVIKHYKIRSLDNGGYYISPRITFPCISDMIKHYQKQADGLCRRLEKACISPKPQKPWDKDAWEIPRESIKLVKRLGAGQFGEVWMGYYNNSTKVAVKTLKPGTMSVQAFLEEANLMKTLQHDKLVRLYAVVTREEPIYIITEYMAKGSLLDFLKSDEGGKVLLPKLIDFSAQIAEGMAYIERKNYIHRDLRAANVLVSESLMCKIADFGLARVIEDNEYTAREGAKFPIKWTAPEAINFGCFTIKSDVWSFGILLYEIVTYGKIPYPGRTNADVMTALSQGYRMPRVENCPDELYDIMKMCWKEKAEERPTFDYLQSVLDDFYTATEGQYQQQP

[13] = molecular target: Tyrosine-protein kinase Lck (Homo sapiens, UniProt P06239); test: Inhibition of human p56 Lck tyrosine kinase (lck64-509)
Sequence of Tyrosine-protein kinase Lck (P06239 whole entry): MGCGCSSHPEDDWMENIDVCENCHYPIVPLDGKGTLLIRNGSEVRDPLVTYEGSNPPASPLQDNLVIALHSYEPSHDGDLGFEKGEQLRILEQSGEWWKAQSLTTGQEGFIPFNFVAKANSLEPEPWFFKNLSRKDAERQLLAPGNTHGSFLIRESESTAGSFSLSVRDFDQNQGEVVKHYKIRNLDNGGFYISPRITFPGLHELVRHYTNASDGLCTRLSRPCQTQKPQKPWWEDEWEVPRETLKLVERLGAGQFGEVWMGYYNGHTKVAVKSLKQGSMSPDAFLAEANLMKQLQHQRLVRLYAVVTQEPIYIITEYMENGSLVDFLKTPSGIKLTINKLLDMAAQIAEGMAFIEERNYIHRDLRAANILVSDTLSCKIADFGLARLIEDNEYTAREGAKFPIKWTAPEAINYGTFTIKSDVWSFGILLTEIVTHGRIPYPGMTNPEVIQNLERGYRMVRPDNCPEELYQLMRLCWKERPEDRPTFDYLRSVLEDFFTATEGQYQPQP

[14] = molecular target: Tyrosine-protein kinase Fyn (Homo sapiens, UniProt P06241); test: Inhibition of human p55 Fyn tyrosine kinase.
Sequence of Tyrosine-protein kinase Fyn (P06241 whole entry): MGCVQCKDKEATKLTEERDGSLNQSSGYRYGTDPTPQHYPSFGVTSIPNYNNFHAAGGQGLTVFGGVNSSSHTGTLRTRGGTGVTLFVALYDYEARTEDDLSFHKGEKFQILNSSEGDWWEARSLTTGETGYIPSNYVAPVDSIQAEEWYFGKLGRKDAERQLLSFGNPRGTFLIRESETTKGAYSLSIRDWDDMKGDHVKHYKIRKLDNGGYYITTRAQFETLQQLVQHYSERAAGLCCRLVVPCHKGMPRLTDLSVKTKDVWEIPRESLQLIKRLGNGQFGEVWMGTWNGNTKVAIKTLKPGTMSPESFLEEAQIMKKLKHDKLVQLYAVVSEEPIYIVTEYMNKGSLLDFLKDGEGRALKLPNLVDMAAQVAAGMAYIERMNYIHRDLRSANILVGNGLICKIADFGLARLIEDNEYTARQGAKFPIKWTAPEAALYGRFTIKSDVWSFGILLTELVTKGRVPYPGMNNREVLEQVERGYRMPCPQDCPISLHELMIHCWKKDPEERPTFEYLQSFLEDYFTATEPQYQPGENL

[15] = Maximum plasma concentration was determined after oral administration at a dose 10 mg/kg to male Sprague-Dawley rats; assay type: ADME, organism-based; parameters: dose 10 mg/kg, route oral; settings: rat
[16] = molecular target: Tyrosine-protein kinase Blk (Homo sapiens, UniProt P51451); test: Inhibition of human B lymphoid tyrosine kinase
Sequence of Tyrosine-protein kinase Blk (P51451 whole entry): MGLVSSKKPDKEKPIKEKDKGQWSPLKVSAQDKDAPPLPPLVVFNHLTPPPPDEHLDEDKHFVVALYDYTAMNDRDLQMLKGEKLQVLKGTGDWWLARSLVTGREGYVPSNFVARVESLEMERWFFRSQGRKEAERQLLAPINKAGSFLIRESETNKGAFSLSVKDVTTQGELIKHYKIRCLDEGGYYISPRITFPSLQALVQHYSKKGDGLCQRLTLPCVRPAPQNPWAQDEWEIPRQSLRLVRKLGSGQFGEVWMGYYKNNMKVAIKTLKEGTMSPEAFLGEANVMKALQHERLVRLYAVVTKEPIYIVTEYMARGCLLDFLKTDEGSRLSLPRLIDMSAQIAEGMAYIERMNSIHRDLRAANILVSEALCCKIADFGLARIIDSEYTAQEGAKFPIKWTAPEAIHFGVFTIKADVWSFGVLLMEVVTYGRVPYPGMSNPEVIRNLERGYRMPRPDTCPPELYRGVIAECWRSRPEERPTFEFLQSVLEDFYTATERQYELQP

[17] = molecular target: Proto-oncogene tyrosine-protein kinase Src (Homo sapiens, UniProt P12931)
Sequence of Proto-oncogene tyrosine-protein kinase Src (P12931 2-536 limits assumed): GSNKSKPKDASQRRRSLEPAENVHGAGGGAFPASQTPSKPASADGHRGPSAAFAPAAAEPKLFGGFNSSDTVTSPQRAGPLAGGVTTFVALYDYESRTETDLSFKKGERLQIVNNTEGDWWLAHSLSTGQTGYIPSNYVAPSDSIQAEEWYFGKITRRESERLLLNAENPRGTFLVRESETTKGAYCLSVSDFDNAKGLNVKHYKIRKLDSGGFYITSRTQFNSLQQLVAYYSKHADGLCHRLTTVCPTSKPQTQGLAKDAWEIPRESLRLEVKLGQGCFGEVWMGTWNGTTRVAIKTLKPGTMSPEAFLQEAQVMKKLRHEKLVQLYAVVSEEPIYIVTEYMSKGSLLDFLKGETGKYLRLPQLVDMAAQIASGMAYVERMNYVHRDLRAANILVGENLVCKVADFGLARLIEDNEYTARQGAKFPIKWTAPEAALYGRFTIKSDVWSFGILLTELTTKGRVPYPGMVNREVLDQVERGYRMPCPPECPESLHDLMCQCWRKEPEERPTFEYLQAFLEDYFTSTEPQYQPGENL
Description: Inhibition of Src protein tyrosine kinase

[18] = molecular target: T2, Tyrosine-protein kinase CSK; test: Inhibition of human Csk tyrosine kinase
Angiopoietin-1 receptor [19] = molecular target: T1, Angiopoietin-1 receptor; test: Inhibition of TIE-2 kinase.
[20] = Compound was evaluated for the pharmacokinetic parameter, maximum time constant; assay type: ADME, organism-based; settings: mouse, in vivo
[21] = Compound was evaluated for the pharmacokinetic parameter, Terminal half life period; assay type: ADME, organism-based; settings: mouse, in vivo
[22] = Compound was evaluated for the pharmacokinetic parameter, area under curve; assay type: ADME, organism-based; settings: mouse, in vivo
[23] = Compound was evaluated for the pharmacokinetic parameter, maximum plasma concentration; assay type: ADME, organism-based; settings: mouse
Mus musculus [24] = test: Compound was evaluated for inhibition of interleukin - 2 (IL-2) production in anti -CD3 mAb stimulation in mice after intraperitoneal administration; assay type: functional; settings: ip
Mus musculus [25] = test: Compound was evaluated for inhibition of interleukin - 2 (IL-2) production in anti -CD3 mAb stimulation in mice after oral administration; assay type: functional
[26] = molecular target: Vascular endothelial growth factor receptor 2 (Homo sapiens, UniProt P35968); test: Inhibition of Vascular endothelial growth factor receptor 2
Sequence of Vascular endothelial growth factor receptor 2 (P35968 whole entry): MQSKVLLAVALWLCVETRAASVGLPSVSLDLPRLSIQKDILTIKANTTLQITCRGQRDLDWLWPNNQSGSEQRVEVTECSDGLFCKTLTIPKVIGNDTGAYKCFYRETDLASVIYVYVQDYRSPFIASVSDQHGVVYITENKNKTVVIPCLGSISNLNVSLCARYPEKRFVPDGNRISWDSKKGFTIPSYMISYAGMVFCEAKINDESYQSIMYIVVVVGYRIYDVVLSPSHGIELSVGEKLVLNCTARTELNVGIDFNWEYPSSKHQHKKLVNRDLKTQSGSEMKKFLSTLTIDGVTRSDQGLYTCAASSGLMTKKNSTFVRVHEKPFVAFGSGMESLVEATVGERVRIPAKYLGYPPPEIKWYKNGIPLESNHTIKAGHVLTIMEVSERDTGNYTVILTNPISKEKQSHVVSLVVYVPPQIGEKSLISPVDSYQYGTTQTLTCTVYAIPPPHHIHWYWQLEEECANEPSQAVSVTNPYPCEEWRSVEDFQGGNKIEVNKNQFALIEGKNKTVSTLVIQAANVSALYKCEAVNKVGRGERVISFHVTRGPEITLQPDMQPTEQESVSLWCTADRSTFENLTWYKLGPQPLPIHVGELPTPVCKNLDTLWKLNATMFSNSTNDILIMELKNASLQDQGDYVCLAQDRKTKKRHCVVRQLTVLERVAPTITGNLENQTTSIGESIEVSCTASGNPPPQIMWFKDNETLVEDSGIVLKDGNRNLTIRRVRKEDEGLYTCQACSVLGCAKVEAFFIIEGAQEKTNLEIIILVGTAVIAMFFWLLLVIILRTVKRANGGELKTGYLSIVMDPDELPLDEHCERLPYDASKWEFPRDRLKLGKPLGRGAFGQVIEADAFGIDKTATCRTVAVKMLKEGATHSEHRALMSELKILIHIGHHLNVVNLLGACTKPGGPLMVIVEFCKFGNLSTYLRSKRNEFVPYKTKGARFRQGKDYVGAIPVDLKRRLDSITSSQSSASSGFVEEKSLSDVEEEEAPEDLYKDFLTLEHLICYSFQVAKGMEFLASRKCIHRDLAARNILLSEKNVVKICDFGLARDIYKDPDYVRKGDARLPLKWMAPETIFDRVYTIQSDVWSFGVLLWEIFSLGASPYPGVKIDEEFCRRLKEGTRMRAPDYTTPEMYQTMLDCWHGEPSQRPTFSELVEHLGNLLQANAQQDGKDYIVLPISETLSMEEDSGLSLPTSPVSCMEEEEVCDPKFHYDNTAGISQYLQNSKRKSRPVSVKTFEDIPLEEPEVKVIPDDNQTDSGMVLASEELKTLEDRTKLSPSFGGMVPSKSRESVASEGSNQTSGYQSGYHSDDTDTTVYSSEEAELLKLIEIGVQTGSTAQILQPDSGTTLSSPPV

Angiopoietin-1 receptor [27] = molecular target: T1, Angiopoietin-1 receptor; test: Inhibition of TIE-2 kinase

SMILES: CN1CCN([C@H]2CC[C@@H](n3cc(-c4ccc(Oc5ccccc5)cc4)c4c(N)ncnc43)CC2)CC1.O=C(O)/C=C\C(=O)O
ED50 (Mus musculus [1]): 2.5 mg/kg

SMILES: CN1CCN([C@H]2CC[C@@H](n3cc(-c4ccc(Oc5ccccc5)cc4)c4c(N)ncnc43)CC2)CC1
half-life [3]: 14.3 h
Tmax [4]: 4 h
clearance [5]: 88.3 mL/min/kg
bioavailability [6]: 54%
Vd [7]: 140 L/kg
AUC [8]: 661 ng·h/mL
IC50 (Homo sapiens): 70 nM
IC50 (Jurkat): 25 nM
ED50 (Mus musculus [9]): 2.2 mg/kg
IC50 [10]: > 20000 nM
IC50 [11]: 41 nM
IC50 [12]: 29 nM
IC50 [13]: 15 nM
IC50 [14]: 59 nM
Cmax [15]: 113 nM
IC50 [16]: 46 nM
IC50 [17]: 42 nM
IC50 (Angiopoietin-1 receptor [2]): 250 nM

SMILES: CN1CCN([C@H]2CC[C@H](n3cc(-c4ccc(Oc5ccccc5)cc4)c4c(N)ncnc43)CC2)CC1
IC50 [18]: 4270 nM
IC50 (Angiopoietin-1 receptor [19]): 5850 nM
IC50 [12]: 430 nM
IC50 [13]: 240 nM
IC50 [14]: 2030 nM
IC50 [16]: 370 nM
IC50 [17]: 1190 nM

Now from value to compound, other results behind:

IC50 (Angiopoietin-1 receptor [2]): > 50000 nM
SMILES: NCCn1cc(-c2ccc(Oc3ccccc3)cc2)c2c(N)ncnc21

Tmax [20]: 0.25 h
half-life [21]: 7.7 h
AUC [22]: 34.3 ng·h/mL
Cmax [23]: 28 nM
IC50 [26]: 4440 nM
IC50 [13]: 100 nM
IC50 (Angiopoietin-1 receptor [27]): 9070 nM
IC50 [17]: 560 nM
SMILES: Nc1ncnc2c1c(-c1ccc(Oc3ccccc3)cc1)cn2C1CCCC1
ED50 (Mus musculus [24]): 4 mg/kg
ED50 (Mus musculus [25]): 25 mg/kg
